Experimental data as given in patent publication US12544392B2, “Treatment of adenovirus infection or disease associated with adenovirus infection” (SymBio Pharmaceuticals Limited, priority 2023, dated 2026).

Experiments:
[1] = tested on: adenovirus (AdV); assay: Human clinical study of once-weekly IV BCV (Example 4): viral load of AdV in plasma; format: in vivo; conditions: cohorts 4-6: 0.4, 0.6 or 0.8 mg/kg (20, 30 or 40 mg/dose if body weight ≥50 kg) IV once weekly
Protocol: A human clinical study on the treatment of AdV infectious disease is conducted according to the following procedure. Patients aged 2 months or older who have asymptomatic AdV infection or AdV disease and have an underlying immunocompromised state, including hematopoietic stem cell transplant recipients before the immune reconstitution by the graft cells is achieved, organ transplant recipients on medication with an immunosuppressant, and patients with immunodeficiency syndrome. […] For patients who, at the physician's discretion, are assessed as being at high risk for AdV infection/recurrence of disease, the treatment period may be extended for up to 10 weeks, even after the 4-week treatment period is completed, if the AdV is not detected by the two most recent consecutive assays with an interval of 3 days at least. […] Adverse events are evaluated according to the National Cancer Institute Common Terminology Criteria for Adverse Events (NCI CTCAE) version 5.0 (grade 1-5). […]

[2] = PK of BCV in plasma with or without concomitant cyclosporine; format: in vivo, human; conditions: for increase of AUCinf of BCV in plasma compared with BCV alone / increase of Cmax of BCV in plasma compared with BCV alone: healthy subjects
From the text: (§1) Subjects 101-12 of cohort 2, and 101-15, 101-18 and 110-06 of cohort 3 took cyclosporine, an immunosuppressive drug, during the treatment period (duration of treatment) of intravenous BCV. Prior PK studies in healthy subjects have shown a significant increase in plasma BCV exposure with concomitant intravenous infusion of BCV and cyclosporine. […] In view of the above, for the above patients taking cyclosporine, any of the doses indicated in 1.1.3 (cohorts 1-3) above is reduced to 60% for administration. Note that when cyclosporine is administered as BID (twice daily) oral or injectable form, the administration is conducted with an interval of 2 hours after the completion of intravenous BCV. In the case of continuous infusion of cyclosporine for 24 hours, no interval is needed.
as §1, with “Prior” for “Subjects 101-12 of cohort 2, and 101-15, 101-18 and 110-06 of cohort 3 took cyclosporine, an immunosuppressive drug, during the treatment period (duration of treatment) of intravenous BCV. Prior”, “4.1.3” for “1.1.3”, “4-6)” for “1-3)”

[3] = Human clinical study of once-weekly IV BCV (Example 4): adverse events; format: in vivo; conditions: cohort 4: 0.4 mg/kg (20 mg/dose if body weight ≥50 kg) IV once weekly
Protocol: The study duration is at least 9 weeks, based on a screening period of 1 week, a treatment period of at least 4 weeks, and post-treatment follow-up period of 30 days. In the screening, after informed consent has been obtained from the patients, a screening evaluation is conducted to determine eligibility for the study. On the first day of the first week of the treatment period, patients are assigned a dose based on the applicable cohort (see the section 4.1.3 Cohorts 4-6 above). The duration of treatment is a minimum of 4 weeks and a maximum of 14 weeks, and termination is based on the treatment stopping criteria as described below. For patients who, at the physician's discretion, are assessed as being at high risk for AdV infection/recurrence of disease, the treatment period may be extended for up to 10 weeks, even after the 4-week treatment period is completed, if the AdV is not detected by the two most recent consecutive assays with an interval of 3 days at least. All patients are followed up for 30 days after the last dosing. Adverse events are evaluated according to the National Cancer Institute Common Terminology Criteria for Adverse Events (NCI CTCAE) version 5.0 (grade 1-5). In cohort 4, patients are enrolled in the initially planned dosing regimen of 0.4 mg/kg or 20 mg IV weekly. […]

[4] = BCV IV and cyclosporine administered simultaneously
[5] = cyclosporine administered at 2 hours after the end of intravenous BCV infusion over 2 hours

## CCCCCCCCCCCCCCCCOCCCOP(=O)(O)CO[C@H](CO)Cn1ccc(N)nc1=O [BCV, [(2S)-1-(4-amino-2-oxopyrimidin-1-yl)-3-hydroxypropan-2-yl]oxymethyl-(3-hexadecoxypropoxy)phosphinic acid]
[1]
  levels of viral load of AdV during the study period: reaches below the LOD
[2]; BCV administered alone
  AUCinf and Cmax of BCV in plasma, cohort 3 patients versus healthy controls: substantially the same
[2]; [4]
  increase of AUCinf of BCV in plasma compared with BCV alone: approximately 3.4 fold
  increase of Cmax of BCV in plasma compared with BCV alone: ~2.3 fold
[2]; [5]
  increase of AUCinf of BCV in plasma compared with BCV alone: approximately 1.8 fold
  increase of Cmax of BCV in plasma compared with BCV alone: ~1.3 fold
[2]; statement in the embodiments, no test described
  effect of cyclosporine administration on the blood concentration of BCV: does not affect
[3]
  occurrence of adverse events: particularly suppressed
